The values that follow come from patent US12371416B2, “Compounds for inhibition of fibroblast activation protein” (USTAV ORGANICKE CHEMIE A BIOCHEMIE AV CR, V. V. I., priority 2020, dated 2025).

SMILES strings stand for the structures.

Type in all cases: cell-based, human
Holding throughout (details): 72 h

For series [1], the system named is CCRF-CEM. The series is described as follows: Cytotoxicity (XTT) on CCRF-CEM cells. The procedure: (§1) The cytotoxicity of the substances was measured on four tumour cell lines: CCRF-CEM, HepG2, Hela, HL-60. All cell lines were purchased from ATCC (Manassas, VA, USA). Cells were cultured in RPMI-1640 or DMEM medium containing 10% (wt/wt) FBS and 1% (wt/wt) GlutaMax. Cells were distributed at 2,000-10,000 per well of a 384-well plate (Thermo Fisher Scientific, Waltham, USA) and incubated overnight. After 24 hours, test substance solutions (10 or 100 μmol·l^−1) were added to the wells and the cells were incubated with the test substances at 37° C. and 5% (vol./vol.) CO2 for another 72 h. XTT dye (XTT cell proliferation kit II, Roche Diagnostics GmbH, Mannheim, Germany) was added to the wells according to the manufacturer's protocol. After one hour of incubation with the dye, the absorbance at 495 nm was measured and the signal was compared with the control (100% viability=cells without test substance).
Background: Tetrazolium dyes change colour on reduction, which living cells bring about.

Series [2] concerns Hela. The series is described as follows: Cytotoxicity (XTT) on Hela cells. The procedure:
as §1

Series [3] deals with HepG2. The series is described as follows: Cytotoxicity (XTT) on HepG2 cells. Here is the method:
as §1

Series [4] deals with HL-60. The series is described as follows: Cytotoxicity (XTT) on HL-60 cells. The procedure:
as §1

With `COC(=O)C(C)NC(=O)C(=O)[C@@H]1CCCN1C(=O)CNC(=O)c1ccnc2ccccc12` (mixture of isomers) [Compound 3m, Methyl (2-oxo-2-((S)-1-((quinoline-4-carbonyl)glycyl)pyrrolidin-2-yl)acetyl)alaninate], in series [1], the “Cell viability CEM 10 μM” value stood at 97 % vs. control and the “Cell viability CEM 100 μM” value was 120 % vs. control. In series [2], the “Cell viability HeLa S3 10 μM” value came out at 108 % vs. control and the “Cell viability HeLa S3 100 μM” value is listed as 104 % vs. control. Moreover, in series [3], the “Cell viability HepG2 10 μM” value was determined as 91 % vs. control and the “Cell viability HepG2 100 μM” value was found to be 105 % vs. control. Further, in series [4], the “Cell viability HL60 10 μM” value was found to be 102 % vs. control and the “Cell viability HL60 100 μM” value is listed as 124 % vs. control.
On to `O=C(NCCc1ccccc1)C(=O)[C@@H]1CCCN1C(=O)CNC(=O)c1ccnc2ccccc12` [Compound 3d, (S)—N-(2-Oxo-2-(2-(2-oxo-2-(phenethylamino)acetyl)pyrrolidin-1-yl)ethyl)quinoline-4-carboxamide], for which, in series [1], the “Cell viability CEM 10 μM” value was 105 % vs. control and the “Cell viability CEM 100 μM” value was 85 % vs. control. Besides, in series [2], the “Cell viability HeLa S3 10 μM” value is 86 % vs. control and the “Cell viability HeLa S3 100 μM” value is on record as 81 % vs. control. In series [3], the “Cell viability HepG2 10 μM” value was 88 % vs. control and the “Cell viability HepG2 100 μM” value came out at 89 % vs. control. Also, in series [4], the “Cell viability HL60 10 μM” value stood at 110 % vs. control and the “Cell viability HL60 100 μM” value is 107 % vs. control.
For `COc1ccc(NC(=O)C(=O)[C@@H]2CCCN2C(=O)CNC(=O)c2ccnc3ccccc23)cc1` [Compound 3f, (S)—N-(2-(2-(2-((4-Methoxyphenyl)amino)-2-oxoacetyl)pyrrolidin-1-yl)-2-oxoethyl)quinoline-4-carboxamide], in series [1], the “Cell viability CEM 10 μM” value stood at 92 % vs. control and the “Cell viability CEM 100 μM” value is reported as 84 % vs. control. Also, in series [2], the “Cell viability HeLa S3 10 μM” value worked out at 103 % vs. control and the “Cell viability HeLa S3 100 μM” value turned out to be 94 % vs. control. In addition, in series [3], the “Cell viability HepG2 10 μM” value is 95 % vs. control and the “Cell viability HepG2 100 μM” value worked out at 82 % vs. control. In series [4], the “Cell viability HL60 10 μM” value came to 110 % vs. control and the “Cell viability HL60 100 μM” value is 108 % vs. control.
In the case of `COC(=O)c1ccc(NC(=O)C(=O)[C@@H]2CCCN2C(=O)CNC(=O)c2ccnc3ccccc23)cc1` [Compound 3g, Methyl (S)-4-(2-oxo-2-(1-((quinoline-4-carbonyl)glycyl)pyrrolidin-2-yl)acetamido)benzoate], in series [1], the “Cell viability CEM 10 μM” value amounted to 106 % vs. control and the “Cell viability CEM 100 μM” value is on record as 73 % vs. control. Also, in series [2], the “Cell viability HeLa S3 10 μM” value stood at 98 % vs. control and the “Cell viability HeLa S3 100 μM” value was 89 % vs. control. For the same compound, in series [3], the “Cell viability HepG2 10 μM” value is reported as 93 % vs. control and the “Cell viability HepG2 100 μM” value is on record as 63 % vs. control. In series [4], the “Cell viability HL60 10 μM” value is 100 % vs. control and the “Cell viability HL60 100 μM” value was determined as 103 % vs. control.
On to `O=C(NC1CC1)C(=O)[C@@H]1CCCN1C(=O)CNC(=O)c1ccnc2ccccc12` [Compound 3h, (S)—N-(2-(2-(2-(Cyclopropylamino)-2-oxoacetyl)pyrrolidin-1-yl)-2-oxoethyl)quinoline-4-carboxamide], for which, in series [1], the “Cell viability CEM 10 μM” value amounted to 94 % vs. control and the “Cell viability CEM 100 μM” value amounted to 115 % vs. control. Besides, in series [2], the “Cell viability HeLa S3 10 μM” value was determined as 89 % vs. control and the “Cell viability HeLa S3 100 μM” value came out at 103 % vs. control. For the same compound, in series [3], the “Cell viability HepG2 10 μM” value was determined as 88 % vs. control and the “Cell viability HepG2 100 μM” value is recorded as 108 % vs. control. Also, in series [4], the “Cell viability HL60 10 μM” value is 110 % vs. control and the “Cell viability HL60 100 μM” value stood at 95 % vs. control.
On to `CC(C)NC(=O)C(=O)[C@@H]1CCCN1C(=O)CNC(=O)c1ccnc2ccccc12` [Compound 3i, (S)—N-(2-(2-(2-(Isopropylamino)-2-oxoacetyl)pyrrolidin-1-yl)-2-oxoethyl)quinoline-4-carboxamide], for which, in series [1], the “Cell viability CEM 10 μM” value turned out to be 93 % vs. control and the “Cell viability CEM 100 μM” value is given as 117 % vs. control. In series [2], the “Cell viability HeLa S3 10 μM” value is given as 78 % vs. control and the “Cell viability HeLa S3 100 μM” value was found to be 105 % vs. control. In series [3], the “Cell viability HepG2 10 μM” value is recorded as 87 % vs. control and the “Cell viability HepG2 100 μM” value was 110 % vs. control. In series [4], the “Cell viability HL60 10 μM” value was found to be 111 % vs. control and the “Cell viability HL60 100 μM” value was 100 % vs. control.
Regarding `COC(=O)CNC(=O)C(=O)[C@@H]1CCCN1C(=O)CNC(=O)c1ccnc2ccccc12` [Compound 3k, Methyl (S)-(2-oxo-2-(1-((quinoline-4-carbonyl)glycyl)pyrrolidin-2-yl)acetyl)glycinate], in series [1], the “Cell viability CEM 10 μM” value is 110 % vs. control and the “Cell viability CEM 100 μM” value is 123 % vs. control. Besides, in series [2], the “Cell viability HeLa S3 10 μM” value was determined as 104 % vs. control and the “Cell viability HeLa S3 100 μM” value is 94 % vs. control. Moreover, in series [3], the “Cell viability HepG2 10 μM” value is on record as 109 % vs. control and the “Cell viability HepG2 100 μM” value is 105 % vs. control. Besides, in series [4], the “Cell viability HL60 10 μM” value is recorded as 112 % vs. control and the “Cell viability HL60 100 μM” value is 103 % vs. control.
As for `CN(C)C(=O)CNC(=O)C(=O)[C@@H]1CCCN1C(=O)CNC(=O)c1ccnc2ccccc12` [Compound 5a, (S)—N-(2-(2-(2-((2-(Dimethylamino)-2-oxoethyl)amino)-2-oxoacetyl)pyrrolidin-1-yl)-2-oxoethyl)quinoline-4-carboxamide], in series [1], the “Cell viability CEM 10 μM” value was found to be 104 % vs. control and the “Cell viability CEM 100 μM” value turned out to be 100 % vs. control. Also, in series [2], the “Cell viability HeLa S3 10 μM” value stood at 92 % vs. control and the “Cell viability HeLa S3 100 μM” value came out at 102 % vs. control. Also, in series [3], the “Cell viability HepG2 10 μM” value came out at 91 % vs. control and the “Cell viability HepG2 100 μM” value is 104 % vs. control. Moreover, in series [4], the “Cell viability HL60 10 μM” value is 105 % vs. control and the “Cell viability HL60 100 μM” value is 76 % vs. control.
As for `O=C(NCC(=O)N1CCCC1)C(=O)[C@@H]1CCCN1C(=O)CNC(=O)c1ccnc2ccccc12` [Compound 5b], in series [1], the “Cell viability CEM 10 μM” value came out at 90 % vs. control and the “Cell viability CEM 100 μM” value was found to be 109 % vs. control. Besides, in series [2], the “Cell viability HeLa S3 10 μM” value worked out at 93 % vs. control and the “Cell viability HeLa S3 100 μM” value was determined as 101 % vs. control. In series [3], the “Cell viability HepG2 10 μM” value was determined as 83 % vs. control and the “Cell viability HepG2 100 μM” value was 106 % vs. control. For the same compound, in series [4], the “Cell viability HL60 10 μM” value was 111 % vs. control and the “Cell viability HL60 100 μM” value was found to be 86 % vs. control.
For `CC(C)NC(=O)CNC(=O)C(=O)[C@@H]1CCCN1C(=O)CNC(=O)c1ccnc2ccccc12` [Compound 5c, (S)—N-(2-(2-(2-((2-(Isopropylamino)-2-oxoethyl)amino)-2-oxoacetyl)pyrrolidin-1-yl)-2-oxoethyl)quinoline-4-carboxamide], in series [1], the “Cell viability CEM 10 μM” value was 113 % vs. control and the “Cell viability CEM 100 μM” value amounted to 108 % vs. control. In series [2], the “Cell viability HeLa S3 10 μM” value turned out to be 119 % vs. control and the “Cell viability HeLa S3 100 μM” value amounted to 99 % vs. control. In series [3], the “Cell viability HepG2 10 μM” value is 96 % vs. control and the “Cell viability HepG2 100 μM” value came to 108 % vs. control. In addition, in series [4], the “Cell viability HL60 10 μM” value is given as 86 % vs. control and the “Cell viability HL60 100 μM” value stood at 89 % vs. control.
As for `O=C(CNC(=O)C(=O)[C@@H]1CCCN1C(=O)CNC(=O)c1ccnc2ccccc12)NCc1ccccc1` [Compound 5d, (S)—N-(2-(2-(2-((2-(Benzylamino)-2-oxoethyl)amino)-2-oxoacetyl)pyrrolidin-1-yl)-2-oxoethyl)quinoline-4-carboxamide], in series [1], the “Cell viability CEM 10 μM” value stood at 89 % vs. control and the “Cell viability CEM 100 μM” value was 107 % vs. control. In series [2], the “Cell viability HeLa S3 10 μM” value was determined as 95 % vs. control and the “Cell viability HeLa S3 100 μM” value is listed as 96 % vs. control. Moreover, in series [3], the “Cell viability HepG2 10 μM” value turned out to be 82 % vs. control and the “Cell viability HepG2 100 μM” value was determined as 89 % vs. control. For the same compound, in series [4], the “Cell viability HL60 10 μM” value came out at 112 % vs. control and the “Cell viability HL60 100 μM” value came out at 95 % vs. control.
In the case of `COC(=O)[C@H](CC(C)C)NC(=O)CNC(=O)C(=O)[C@@H]1CCCN1C(=O)CNC(=O)c1ccnc2ccccc12` [Compound 5e, Methyl (2-oxo-2-((S)-1-((quinoline-4-carbonyl)glycyl)pyrrolidin-2-yl)acetyl)glycyl-L-leucinate], in series [1], the “Cell viability CEM 10 μM” value was 96 % vs. control and the “Cell viability CEM 100 μM” value was determined as 104 % vs. control. Also, in series [2], the “Cell viability HeLa S3 10 μM” value stood at 99 % vs. control and the “Cell viability HeLa S3 100 μM” value is given as 106 % vs. control. Further, in series [3], the “Cell viability HepG2 10 μM” value is given as 75 % vs. control and the “Cell viability HepG2 100 μM” value came to 110 % vs. control. Also, in series [4], the “Cell viability HL60 10 μM” value is on record as 112 % vs. control and the “Cell viability HL60 100 μM” value is listed as 83 % vs. control.
